Results taken from patent publication US20200138744A1, “METHODS OF TREATING PANCREATIC CANCER USING COENZYME Q10” (Berg LLC, priority 2018, published 2020).

Tests used:
[1] = Phase I clinical trial; monotherapy and in combination with gemcitabine; IV
Excerpt: (§1) The composition comprising Coenzyme Q10 evaluated in this study is a ubidecarenone containing intravenous (IV) nanodispersion that switches cancer energy generation from glycolysis to mitochondrial oxidative phosphorylation to elicit an anticancer effect.

[2] = Phase 2 clinical study, adverse events / toxicity profile; settings: for Patients with an AE: safety population (31 patients), % of all 31
Protocol: Eligible patients (aged ≥18 y) were relapsed/refractory to standard treatment and met inclusion/exclusion criteria. […] Each received either two 72-hr infusions of 110 mg/kg IV Coenzyme Q10 alone (Monotherapy) or in combination with gemcitabine (Combination Therapy), per week. Tumor response was evaluated at week 10 and then every 8 weeks. Clinical assessments included investigator observations and patient reports.
(§2) A Coenzyme Q10 Nanosuspension Injection (40 mg/mL) was administered IV over 144 hours. Each patient received 2 consecutive 72-hour infusions per week. Monotherapy arm patients received a Coenzyme Q10 dose of 110 mg/Kg only weekly. Patients in the combination therapy arm received a Coenzyme Q10 dose of 110 mg/Kg and gemcitabine IV once weekly (starting at week 3) at a starting dose of 1000 mg/m^2.

[3] = test system: metastatic pancreatic cancer; assay: Phase 2 clinical study, efficacy (RECIST 1.1, TTP, PFS, OS)
Protocol: Eligible patients (aged ≥18 y) were relapsed/refractory to standard treatment and met inclusion/exclusion criteria. […] Each received either two 72-hr infusions of 110 mg/kg IV Coenzyme Q10 alone (Monotherapy) or in combination with gemcitabine (Combination Therapy), per week. Tumor response was evaluated at week 10 and then every 8 weeks. Clinical assessments included investigator observations and patient reports. This study occurred in two parts: Part 1 of the study enrolled ten (10) patients in the Coenzyme Q10 (monotherapy arm) and ten (10) patients in the Coenzyme Q10 plus gemcitabine (combination therapy arm) with intent to enroll the additional 15 patients (Part 2) into the applicable treatment arm(s) based on RECIST v1.1 clinical response.
Patients with no prior gemcitabine treatments prior to screening for the study, or prior gemcitabine treatment >3 months prior to screening for the study were assigned to the combination therapy group. Patients with prior gemcitabine discontinued due to toxicity in prior treatment, patients unable to tolerate a dose of 800 mg/m^2 weekly at any point due to toxicity, and patients with prior gemcitabine treatment ≤3 months prior to screening for the study were assigned to the monotherapy group.
as §2
The primary objective of the study was to evaluate the Overall Response Rate (ORR) in patients treated with the combination of Coenzyme Q10 with gemcitabine or Coenzyme Q10 as a monotherapy. The secondary objectives were to evaluate Overall Survival (OS), Progression-Free Survival (PFS) overall and at around 10 weeks (equal to 2 cycles of treatment), Time to Progression (TTP), Tumor Response using Adaptive Molecular Responses (multi-omic molecular profiling), the toxicity profile of Coenzyme Q10 with gemcitabine and as monotherapy when given over 144-hour intravenous (IV) infusion in patients with advanced pancreatic cancer, changes in carbohydrate antigen (CA) 19-9 levels, and patient reported Quality of Life (QOL) using the validated FACT-HEP PRO.
The study described above in Example 1 was continued and additional patients were evaluated.

pancreatic models = assay: Preclinical in vivo pancreatic models, survival; settings: IV administration, alone and in combination with gemcitabine
Excerpt: as §1

[4] = treatment-emergent, safety population
[5] = Example 1, overall current population
[6] = Example 1, preliminary, both arms

## COC1=C(OC)C(=O)C(C/C=C(\C)CC/C=C(\C)CC/C=C(\C)CC/C=C(\C)CC/C=C(\C)CC/C=C(\C)CC/C=C(\C)CC/C=C(\C)CC/C=C(\C)CCC=C(C)C)=C(C)C1=O [Coenzyme Q10]
[1]
  MTD: 110 mg/kg
[2]; Example 1
  patients who experienced at least 1 AE: All
[2]; Example 1, 31 treated patients
  INR increase, frequency of AE: 48.4%
  abdominal pain, frequency of AE: 35.5%
  fatigue, frequency of AE: 38/7
  thrombocytopenia, frequency of AE: 35.5%
[2]; Example 1, Phase 2
  tolerability: well-tolerated
[2]; Example 1, number of AEs
  AEs considered definitely related to study drug: 10
  AEs considered possibly related to study drug: 19
  AEs considered probably related to study drug: 14
[2]; Example 2
  most common AE's: GI related
  tolerability: well tolerated
[2]; [4]
  Number of AEs: 347
  Subjects with any AE leading to study drug discontinuation: 4 (12.9) N (%)
  Subjects with any Infusion reactions: 0 N (%)
  Subjects with any Serious AE: 12 (38.7) N (%)
  Subjects with any ≥Grade 3 AE: 31 (100) N (%)
[2]; treatment-emergent, listed as Coenzyme Q10-IV
  Patients with an AE: 31 (100) N (%)
[2]; treatment-emergent, listed as Mono
  Patients with an AE: 13 (41.9) N (%)
[3]; [5]
  mean overall survival: 125 days
  mean time to progression (TTP): 68 days
  median overall survival: 108 days
  median time to progression (TTP): 53 days
[3]; [6]
  patients with SD <4 months: 4
  patients with SD >4 months: 3
[3]; Example 1, preliminary, of 13 evaluable patients
  stable disease (SD) noted, number of patients by arm: 1
[3]; Example 1, preliminary, of 13 evaluable patients, both arms
  stable disease (SD) noted, number of patients: 7
[3]; Example 2, adequately treated cohort, n=9/18, with gemcitabine
  best ORR of stable disease (SD), share of ATC population: 50%
[3]; Example 2, with gemcitabine, 95% CI 70-131, FIG. 4
  median Progression-Free Survival (PFS): 118 days
[3]; Example 2, with gemcitabine, 95% CI 70-147, FIG. 3
  median time to progression (TTP): 121 days
[3]; Example 2, with gemcitabine, 95% CI 131-228, FIG. 5
  median Overall Survival (OS): 218 days
[3]; FIG. 1, monotherapy or combination therapy
  correlation of time of Coenzyme Q10 exposure with time to progression: positively correlated
[3]; FIG. 2, monotherapy or combination therapy
  correlation of time of Coenzyme Q10 exposure with overall survival: positively correlated
[3]; Overall to Date (N = 47)
  Discontinuation from the study: Disease Progression: 12 (25.5) N (%)
Pancreatic models
  duration of survival outcomes: significantly improved
